Reference: ChEMBL document CHEMBL1201862, “PubChem BioAssay data set” (2004)
Values joined by “and” are separate entries in the source; they are usually repeats but may differ in a detail not shown here. Equal entries are not always repeated.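 Following 48 hours of exposure in 96-well plates, responses at five concentrations were used to interpolate endpoints linearly. The concentration for 50% growth inhibition is given as GI50.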 Active and inactive are the calls of the source. No stated cut-off is given here; in the data, active = GI50 up to about 1.1 µM and inactive = higher.

Tests used:
Assay in all cases: NCI anticancer screen, dose series, 48 h
HCT-116 = tested on: HCT-116
COLO 205 = tested on: COLO 205
NCI-H226 = tested on: NCI-H226
ACHN = tested on: ACHN
M19-MEL = tested on: M19-MEL
UACC-62 = tested on: UACC-62
DMS-114 = tested on: DMS-114
CCRF-CEM = tested on: CCRF-CEM
SK-MEL-28 = tested on: SK-MEL-28
SK-MEL-5 = tested on: SK-MEL-5
SK-MEL-2 = tested on: SK-MEL-2
SNB-75 = tested on: SNB-75
HL-60 = tested on: HL-60
HT-29 = tested on: HT-29
OVCAR-8 = tested on: OVCAR-8
DMS-273 = tested on: DMS-273
Malme-3M = tested on: Malme-3M
HCT-15 = tested on: HCT-15
EKVX = tested on: EKVX
A549 = tested on: A549
KM12 = tested on: KM12
SW-620 = tested on: SW-620
K562 = tested on: K562
SNB-78 = tested on: SNB-78
NCI-H460 = tested on: NCI-H460
HCC 2998 = tested on: HCC 2998
LOX IMVI = tested on: LOX IMVI
DLD-1 = tested on: DLD-1
LXFL 529 = tested on: LXFL 529
OVCAR-5 = tested on: OVCAR-5
A498 = tested on: A498
SN12C = tested on: SN12C

## CC(=O)OCC1OC(n2c(=S)n(-c3ccccc3)c(=O)c3cc(Br)cc(Br)c32)C(OC(C)=O)C(OC(C)=O)C1OC(C)=O (configuration not stated)
HCT-116
  GI50: 65.2 µM (inactive)
COLO 205
  GI50: > 100 µM (inactive)
NCI-H226
  GI50: 61.7 µM (inactive)
ACHN
  GI50: 51.8 µM (inactive) and 87.3 µM (inactive)
M19-MEL
  GI50: 65.6 µM (inactive)
UACC-62
  GI50: 59.2 µM (inactive) and 54.3 µM (inactive)
DMS-114
  GI50: 35.2 µM (inactive) and 57.8 µM (inactive)
CCRF-CEM
  GI50: > 100 µM (inactive)
SK-MEL-28
  GI50: > 100 µM (inactive)
SK-MEL-5
  GI50: 91.6 µM (inactive)
SK-MEL-2
  GI50: > 100 µM (inactive)
SNB-75
  GI50: 33.5 µM (inactive) and 22.6 µM (inactive)
HL-60
  GI50: 86.7 µM (inactive)
HT-29
  GI50: > 100 µM (inactive)
OVCAR-8
  GI50: > 100 µM (inactive) and 92.9 µM (inactive)
DMS-273
  GI50: > 100 µM (inactive) and 64.9 µM (inactive)
Malme-3M
  GI50: > 100 µM (inactive)
HCT-15
  GI50: 83.4 µM
EKVX
  GI50: > 100 µM (inactive)
A549
  GI50: 90.8 µM (inactive) and 58.6 µM (inactive)
KM12
  GI50: 83 µM (inactive) and 78.5 µM (inactive)
SW-620
  GI50: > 100 µM (inactive)
K562
  GI50: 65.3 µM (inactive)
SNB-78
  GI50: 99.3 µM (inactive) and 54.8 µM (inactive)
NCI-H460
  GI50: > 100 µM (inactive) and 81.8 µM (inactive)
HCC 2998
  GI50: > 100 µM (inactive)
LOX IMVI
  GI50: 60 µM (inactive)
DLD-1
  GI50: > 100 µM (inactive)
LXFL 529
  GI50: 72.1 µM (inactive) and 45.2 µM (inactive)
OVCAR-5
  GI50: > 100 µM (inactive)
A498
  GI50: > 100 µM (inactive) and 61.7 µM (inactive)
SN12C
  GI50: > 100 µM (inactive) and 81.8 µM (inactive)
